Results: PubChem BioAssay (NCI)
Where “and” joins values, the source holds several entries; their conditions need not be identical. Identical values can stand only once.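 Each compound was tested at five concentrations against cells in 96-well plates for 48 hours. GI50 = concentration required for 50% inhibition of growth. TGI: total growth inhibition.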

Key:
Assay in all cases: NCI-60 cell line screen, 48 h
TK-10 renal = system: TK-10 renal
SR leukemia = system: SR leukemia
HS 578T breast = system: HS 578T breast
HOP-62 NSCLC = system: HOP-62 NSCLC
OVCAR-3 ovarian = system: OVCAR-3 ovarian
SF-268 CNS = system: SF-268 CNS
HL-60(TB) leukemia = system: HL-60(TB) leukemia
HCT-116 colon = system: HCT-116 colon
K-562 leukemia = system: K-562 leukemia
MDA-MB-231 breast = system: MDA-MB-231 breast

Row | SMILES | TGI (TK-10 renal) | TGI (SR leukemia) | TGI (HS 578T breast) | TGI (HOP-62 NSCLC) | TGI (OVCAR-3 ovarian) | TGI (SF-268 CNS) | TGI (HL-60(TB) leukemia) | TGI (HCT-116 colon) | TGI (K-562 leukemia) | TGI (MDA-MB-231 breast) | GI50 (TK-10 renal) | GI50 (SR leukemia) [µM] | GI50 (HS 578T breast) | GI50 (HOP-62 NSCLC) | GI50 (K-562 leukemia) | GI50 (OVCAR-3 ovarian) | GI50 (SF-268 CNS) | GI50 (MDA-MB-231 breast) | GI50 (HL-60(TB) leukemia) [µM] | GI50 (HCT-116 colon) [µM]
1 | CC1CC(O)C(=O)C(O[C@@H]2C[C@@H]3CC[C@@H]4[C@H](CC[C@]5(C)C(C6=CC(=O)OC6)CC[C@]45O)[C@@]3(C=O)C[C@H]2O)O1 (stereo partly drawn) | 0.173 µM | 0.0792 µM | 0.214 µM | 0.0492 µM | 0.0346 µM | 0.146 µM | 0.155 µM | 0.0511 µM | – | – | – | – | – | – | – | – | – | – | – | –
2 | COc1ccc(C(=O)c2cc(OC)c(OC)c(OC)c2)cc1OC | > 100 µM | > 100 µM | 8.83 µM | > 100 µM | 9.47 µM | > 100 µM | 11.7 µM | > 100 µM | > 100 µM | > 100 µM | – | – | – | – | – | – | – | – | – | –
3 | Cc1ccc(OCCOCCOCCOCCOc2ccc(C)n(O)c2=S)c(=S)n1O | > 100 µM | > 100 µM | > 100 µM | > 100 µM | 50.8 µM | > 100 µM | 5.95 µM | > 100 µM | > 100 µM | > 100 µM | 0.527 µM | 0.0616 | 3.58 µM | 0.184 µM | < 0.01 µM | < 0.01 µM | 0.0482 µM | 0.114 µM | 0.11 | < 0.01
4 | COc1ccc(/C(C)=C(\c2ccc(OCCN3CCCCCC3)cc2)c2ccc(OC(=O)C3CCCCC3)cc2)cc1 | 4.25 µM | 1.07 µM | 3.74 µM | 4.21 µM | 3.13 µM | 4.33 µM | 2.85 µM | 2.47 µM | 6.14 µM | 3 µM | 1.84 µM | 0.291 | 0.959 µM | 1.89 µM | 0.356 µM | 1.16 µM | 1.16 µM | 1.05 µM | 0.707 | 0.638
5 | CO[C@H]1Nc2c(ccc(C)c2O)C(=O)N2C=C(/C=C/C(N)=O)C[C@@H]12 | 7.95 µM | > 100 µM | 0.0407 µM | 0.0386 µM | 0.192 µM | 0.411 µM | 0.456 µM | – | 27.8 µM | 0.0333 µM | – | – | – | – | – | – | – | – | – | –
6 | CC(C)[C@H](O)C(=O)N[C@@H](C)C(=O)N[C@@H]1C(=O)N(C)CCc2ccccc21 | > 100 µM | > 100 µM | > 100 µM | > 100 µM | > 100 µM | > 100 µM | > 100 µM | > 100 µM | > 100 µM | > 100 µM | > 100 µM | > 100 | > 100 µM | > 100 µM | > 100 µM | > 100 µM | > 100 µM | > 100 µM | > 100 | > 100
7 | O=C1CCCN1c1ccccc1I(=O)=O | > 100 µM | > 100 µM | > 100 µM | – | > 100 µM | > 100 µM | > 100 µM | – | > 100 µM | > 100 µM | > 100 µM | 95.6 | > 100 µM | – | > 100 µM | > 100 µM | > 100 µM | > 100 µM | > 100 | –
8 | OC(c1cc(-c2ccc(C(F)(F)F)cc2)nc(C(F)(F)F)c1)C1CCCCN1 (stereo not drawn) | 3.23 µM and 4.95 µM | 2.17 µM and 4.69 µM | 4.05 µM and 12.2 µM | 3.18 µM and 4.75 µM | 3.28 µM and 6.76 µM | 3.46 µM and 13.1 µM | 3.67 µM and 4.11 µM | 2.87 µM and 3.47 µM | 2.94 µM and 4.06 µM | 3.16 µM and 5.65 µM | 1.72 µM and 2.16 µM | 0.362 | 1.96 µM and 3.92 µM | 1.75 µM and 2.13 µM | 1.2 µM and 1.91 µM | 1.85 µM and 2.69 µM | 1.85 µM and 3.76 µM | 1.72 µM and 2.42 µM | 1.43 | 1.53
9 | CC(C)(C)[Si](C)(C)OC1[C@@H](CNC(=O)NC(=O)CCl)O[C@@H](n2cnc3c(N)ncnc32)[C@H]1O[Si](C)(C)C(C)(C)C (stereo partly drawn) | 3.63 µM | 0.562 µM | 3.17 µM | 1.69 µM | 1.94 µM | 2.09 µM | 1.87 µM | 1.51 µM | 3.41 µM | 1.71 µM | 1.39 µM | 0.162 | 1.14 µM | 0.842 µM | 1.23 µM | 1.02 µM | 1.06 µM | 0.905 µM | 0.893 | 0.795
10 | CCCC(=O)C1=C(O)C(Cc2c(O)c(C)c(O)c(C(=O)CCC)c2O)=C(O)C(C)(C)C1=O | > 50 µM | 40.3 µM | > 50 µM | > 50 µM | > 50 µM | > 50 µM | – | > 50 µM | 48 µM | > 50 µM | – | – | – | – | – | – | – | – | – | –
11 | c1ccc2c(c1)[nH]c1c2cc[n+]2cc3c(cc12)CCCC3 | 25.6 µM | 7.52 µM and 4.19 µM | 12.2 µM and > 100 µM | 17 µM and 7.86 µM | – | 12.8 µM and 18.3 µM | 5.39 µM | 14.2 µM and 4.66 µM | 12.5 µM and 10.8 µM | 10 µM and 12.7 µM | – | 2.51 | 2.63 µM | 3.77 µM | 2.76 µM | 2.91 µM | – | 2.97 µM | 1.27 | 3.3
12 | COc1ccc(-c2nc(-c3cc(OC)cc(OC)c3)[nH]c2-c2ccc(OC)cc2)cc1 | > 100 µM | 8.74 µM | > 100 µM | > 100 µM | > 100 µM | > 100 µM | > 100 µM | > 100 µM | > 100 µM | > 100 µM | 53.1 µM | 2.43 | 8.33 µM | > 100 µM | 5.02 µM | 5.95 µM | > 100 µM | 6.82 µM | 3.74 | 8.06
13 | O=C(NCc1ccc(Cn2c(=O)sn(-c3ccccc3)c2=O)cc1)OCc1ccc2cccc(O)c2n1 | 1.62 µM | > 100 µM | 4.9 µM | 3.52 µM | 1.36 µM | 3.04 µM | > 20.5 µM | 1.14 µM | > 100 µM | 2.55 µM | 0.571 µM | 0.383 | 1.71 µM | 1.55 µM | 0.403 µM | 0.363 µM | 1.55 µM | 1.19 µM | 1.24 | 0.259
14 | CCC(C)(O)c1cnc(CC(C)C)c(=O)n1O (stereo not drawn) | > 100 µM | 62.6 µM | > 100 µM | > 100 µM | 81.6 µM | > 100 µM | – | > 100 µM | 47.8 µM | > 100 µM | – | – | – | – | – | – | – | – | – | –
